± gives the expanded uncertainty stated by the source.
Assay: refractive index (other wavelength) (dimensionless)
Conditions: 101 kPa, Liquid, Standard Abbe refractometry

SMILES	refractive index (293.15 K, Wavelength=436.1 nm)	refractive index (293.15 K, Wavelength=513.9 nm)	refractive index (293.15 K, Wavelength=589.3 nm)	refractive index (293.15 K, Wavelength=633.2 nm)	refractive index (293.15 K, Wavelength=657.2 nm)	refractive index (298.15 K, Wavelength=436.1 nm)	refractive index (298.15 K, Wavelength=513.9 nm)	refractive index (298.15 K, Wavelength=589.3 nm)	refractive index (298.15 K, Wavelength=633.2 nm)	refractive index (298.15 K, Wavelength=657.2 nm)	refractive index (303.15 K, Wavelength=436.1 nm)	refractive index (303.15 K, Wavelength=513.9 nm)	refractive index (303.15 K, Wavelength=589.3 nm)	refractive index (303.15 K, Wavelength=633.2 nm)	refractive index (303.15 K, Wavelength=657.2 nm)	refractive index (308.15 K, Wavelength=436.1 nm)	refractive index (308.15 K, Wavelength=513.9 nm)	refractive index (308.15 K, Wavelength=589.3 nm)	refractive index (308.15 K, Wavelength=633.2 nm)	refractive index (308.15 K, Wavelength=657.2 nm)	also measured
CCCCCCCCCCCC [dodecane]	1.43105 ± 0.00072	1.42506 ± 0.00082	1.42171 ± 0.00074	1.42031 ± 0.00073	1.41993 ± 0.00071	1.42886 ± 0.00072	1.42291 ± 0.00071	1.41957 ± 0.00071	1.41815 ± 0.00071	1.41777 ± 0.00071	1.42666 ± 0.00072	1.42074 ± 0.00072	1.41742 ± 0.00071	1.41601 ± 0.00071	1.41564 ± 0.00071	1.42445 ± 0.00072	1.41857 ± 0.00072	1.41527 ± 0.00071	1.41385 ± 0.00071	1.4135 ± 0.00071	refractive index (313.15 K, Wavelength=436.1 nm): 1.42223 ± 0.00072; refractive index (313.15 K, Wavelength=513.9 nm): 1.41638 ± 0.00072; refractive index (313.15 K, Wavelength=589.3 nm): 1.41309 ± 0.00071; refractive index (313.15 K, Wavelength=633.2 nm): 1.41171 ± 0.00072; refractive index (313.15 K, Wavelength=657.2 nm): 1.41134 ± 0.00071; refractive index (318.15 K, Wavelength=436.1 nm): 1.42001 ± 0.00072; refractive index (318.15 K, Wavelength=513.9 nm): 1.41418 ± 0.00063; refractive index (318.15 K, Wavelength=589.3 nm): 1.41093 ± 0.00069; refractive index (318.15 K, Wavelength=633.2 nm): 1.40943 ± 0.0007; refractive index (318.15 K, Wavelength=657.2 nm): 1.4092 ± 0.00071
CC(C)Cc1ccccc1 [(2-methylpropyl)benzene]	1.50429 ± 0.00078	1.4927 ± 0.001	1.48654 ± 0.0008	1.48377 ± 0.00078	1.48286 ± 0.00076	1.50172 ± 0.00078	1.49023 ± 0.00076	1.48406 ± 0.00076	1.48132 ± 0.00075	1.48035 ± 0.00075	1.49916 ± 0.00078	1.48772 ± 0.00077	1.4815 ± 0.00076	1.47888 ± 0.00075	1.47798 ± 0.00074	1.49659 ± 0.00078	1.48521 ± 0.00077	1.47904 ± 0.00075	1.47643 ± 0.00075	1.47555 ± 0.00075	refractive index (313.15 K, Wavelength=436.1 nm): 1.494 ± 0.00078; refractive index (313.15 K, Wavelength=513.9 nm): 1.48268 ± 0.00076; refractive index (313.15 K, Wavelength=589.3 nm): 1.47657 ± 0.00076; refractive index (313.15 K, Wavelength=633.2 nm): 1.47397 ± 0.00075; refractive index (313.15 K, Wavelength=657.2 nm): 1.47309 ± 0.00075; refractive index (318.15 K, Wavelength=436.1 nm): 1.49143 ± 0.00078; refractive index (318.15 K, Wavelength=513.9 nm): 1.48023 ± 0.0006; refractive index (318.15 K, Wavelength=589.3 nm): 1.47409 ± 0.0007; refractive index (318.15 K, Wavelength=633.2 nm): 1.47151 ± 0.00072; refractive index (318.15 K, Wavelength=657.2 nm): 1.47063 ± 0.00075
c1ccc2c(c1)CCCC2 [1,2,3,4-tetrahydronaphthalene]	1.56232 ± 0.00078	1.54872 ± 0.001	1.5412 ± 0.00082	1.53808 ± 0.00078	1.53694 ± 0.00075	1.5598 ± 0.00078	1.54625 ± 0.00077	1.53875 ± 0.00076	1.53565 ± 0.00075	1.53452 ± 0.00075	1.55719 ± 0.00078	1.54373 ± 0.00076	1.53628 ± 0.00075	1.53321 ± 0.00075	1.53208 ± 0.00074	1.55471 ± 0.00077	1.5413 ± 0.00076	1.53389 ± 0.00075	1.53083 ± 0.00074	1.52971 ± 0.00074	refractive index (313.15 K, Wavelength=436.1 nm): 1.55219 ± 0.00077; refractive index (313.15 K, Wavelength=513.9 nm): 1.53886 ± 0.00076; refractive index (313.15 K, Wavelength=589.3 nm): 1.53148 ± 0.00075; refractive index (313.15 K, Wavelength=633.2 nm): 1.52844 ± 0.00073; refractive index (313.15 K, Wavelength=657.2 nm): 1.52732 ± 0.00074; refractive index (318.15 K, Wavelength=436.1 nm): 1.54974 ± 0.00077; refractive index (318.15 K, Wavelength=513.9 nm): 1.53647 ± 0.00059; refractive index (318.15 K, Wavelength=589.3 nm): 1.52912 ± 0.00067; refractive index (318.15 K, Wavelength=633.2 nm): 1.52629 ± 0.0007; refractive index (318.15 K, Wavelength=657.2 nm): 1.52495 ± 0.00074

— the NIST ThermoML archive (doi:10.1021/acs.jced.5b00251)
